Results published in patent US12156860B2, “Disorders implicating PUFA oxidation” (BioJiva LLC, priority 2011, dated 2024).

What was measured:
[1] = Kinetics of O2 consumption during AMVN-initiated oxidation in chlorobenzene (glass capillary microvolumeter); type: physicochemical
Description: FIG. 7. Kinetics of O2 consumption accompanied the oxidation of 0.71 M LA (plots 1 and 2) and 0.71 M D2-LA (plot 3) in chlorobenzene initiated by 40 mM AMVN at 37° C. Plot 2-0.23 mM HPMC was added to 0.71 M LA.
The kinetics of oxygen consumption during the oxidation of LA and D2-LA was studied with a glass capillary microvolumeter (FIG. 7). The rate of oxidation, ROX, was measured as a slope of [O2] traces. The rate of initiation, RIN, was determined by the inhibitor method with HPMC (“6-hydroxy-2,2,5,7,8-pentamethylbenzochroman”) as a reference inhibitor. RIN was calculated from the induction period of inhibited oxidation, tIND: RIN=2·[HPMC]/tIND. […] When the process was inhibited by 0.23 mM chain-breaking antioxidant HPMC, the duration of the induction period, tIND, was about 48 min, with the RIN value of around 0.16×10^−6 M/s. […] The latter precludes a direct determination of RIN. […] An estimated kinetic isotope effect (“KIE”), from comparison of ROX for LA and D2-LA, was around 6.1×10^−6/0.18×10^−6≈35. A similar KIE was determined during the oxidation of LA and 11,11-d2-LA in Triton X-100 aqueous micelles (data not shown). For comparative purposes, the theoretical KIE is 6.9 at 25° C. See Carpenter, “Determination of Organic Reaction Mechanisms” (John Wiley & Sons, 1984), p. 89.

[2] = test system: stroke-prone spontaneously hypertensive (SHRSP) rat; test: SHRSP rat model of hypertension; type: in vivo; details: SHRSP rats, 8 weeks
Excerpt: The stroke-prone spontaneously hypertensive (SHRSP) rat model of hypertension, which has been previously described (McIntyre et al., 1997 Hypertension 30:1517; Alexander et al., 1999 Cardiovasc. Res. 43:798; Fennell et al., 2002 Gene Ther. 9:110), can be used for the assessment of a compound's ability to mitigate hypertension.

For [2H]C([2H])(/C=C\CCCCC)/C=C\CCCCCCCC(=O)O [D2-LA, 11,11-Dideutero-cis,cis-9,12-Octadecadienoic acid], the “rate of oxidation, ROX” value ([1]; 0.71 M in chlorobenzene, 40 mM AMVN, 37° C.) was 1.8e-07 M/s, the “kinetic isotope effect (KIE) from comparison of ROX for LA and D2-LA” value ([1]; chlorobenzene, 37° C.) was “≈ 35” and the “length of the kinetic chain, ROX/RIN” value ([1]; for D2-LA assuming RIN comparable to that of LA) was “≈ 1.1”. For the same compound, the systolic blood pressure [2] was “reduction in systolic blood pressure”.
